Assay results reported in article PMC10893357 (Viruses, 2024).

Experiments:
Type in all cases: cell-based
[1] = tested on: SARS-CoV-2 Wuhan, lineage B.1.1 hCoV-19/Russia/Omsk202118_1707/2020; test: Antiviral CPE reduction assay in Vero E6 cells, Wuhan; conditions: Severe acute respiratory syndrome coronavirus 2, Vero C1008, 96 h
[2] = tested on: SARS-CoV-2 Delta, lineage B.1.617.2 hCoV-19/Russia/PSK-2804/2021; test: Antiviral CPE reduction assay in Vero E6 cells, Delta; conditions: Severe acute respiratory syndrome coronavirus 2, Vero C1008, 96 h
[3] = tested on: SARS-CoV-2 Omicron, BA.1 hCoV-19/Russia/Moscow171619-031221/2021; test: Antiviral CPE reduction assay in Vero E6 cells, Omicron BA.1; conditions: Severe acute respiratory syndrome coronavirus 2, Vero C1008, 96 h
[4] = tested on: SARS-CoV-2 Omicron, BA 5.2 hCov-19/Russia/Moscow-49415/2022; test: Antiviral CPE reduction assay in Vero E6 cells, Omicron BA.5.2; conditions: Severe acute respiratory syndrome coronavirus 2, Vero C1008, 96 h
[5] = tested on: SARS-CoV-2 Omicron, XBB 1.5 hCoV-19/Russia/SAK-SRC-8527/2023; test: Antiviral CPE reduction assay in Vero E6 cells, Omicron XBB.1.5; conditions: Severe acute respiratory syndrome coronavirus 2, Vero C1008, 96 h
[6] = tested on: SARS-CoV-2 Omicron lineage BQ.1.1 hCoV-19/Russia/TOM-SRC-8663/2023; test: Antiviral CPE reduction assay in Vero E6 cells, Omicron BQ.1.1; conditions: Severe acute respiratory syndrome coronavirus 2, Vero C1008, 96 h
[7] = Cytotoxicity (MTT) in Vero E6 cells; conditions: African green monkey

SMILES: CC(=O)C1=C(O)C=C2Oc3c(-c4csc(N/N=C/c5ccc(Br)s5)n4)c(O)c(C)c(O)c3[C@@]2(C)C1=O [(+)-3e]
- EC50 [1]: 25.3 ± 2.2 µM
- EC50 [2]: 41.5 ± 3.1 µM
- EC50 [3]: 20.7 ± 1.6 µM
- EC50 [4]: 20 ± 1.6 µM
- EC50 [5]: 22.4 ± 2 µM
- EC50 [6]: 32.2 ± 2.6 µM
- CC50 at 4 days [7]: 350 ± 21.2 µM

SMILES: CCC(CC)COC(=O)[C@H](C)N[P@](=O)(OC[C@H]1O[C@@](C#N)(c2ccc3c(N)ncnn23)[C@H](O)[C@@H]1O)Oc1ccccc1 [Remdesivir, reference compound]
- EC50 [1]: 3.8 ± 0.42 µM
- EC50 [2]: 2.1 ± 0.16 µM
- EC50 [3]: 2 ± 0.13 µM
- EC50 [4]: 4.45 ± 1 µM
- EC50 [5]: 2.65 ± 0.6 µM
- EC50 [6]: 3.13 ± 0.9 µM
- CC50 at 4 days [7]: 711 ± 21.2 µM
